From patent US5607967A, “Treatment of alzheimer's disease with 5-(tetradecyloxy)-2-furan carboxylic acid” (Merck & Co., Inc., priority 1994, dated 1997)
“And” between values parts separate entries of the source, which are not always exact repeats. Equal entries are not always repeated. “Also recorded” adds a separate entry of the source.

Key:
PC12 cells [1] = assay: Neurite differentiation of PC12 cells; type: cell-based; details: for % Cells Bearing Neurites / Average length of neurites: 4 days, mean ±SEM
Description: To further study the influence of TOFA on the nervous system, we tested the effect of TOFA on the differentiation of PC12 cells. PC12 cells were plated at a density of approximately 100-200/mm^2 on collagen coated plates or dishes in RPMI medium supplemented with 10% horse serum, 5% fetal calf serum, […] streptomycin, 50 U/mL penicillin in a water saturated atmosphere of 95% air and 5% CO2, at 37° C. overnight. Medium was replaced with fresh RPMI containing 1.5% serum, 100 ng/mL NGF and the indicated concentration of TOFA or an equivalent volume of vehicle (DMSO) giving a final concentration of 0.1% DMSO.
At different time points during the treatment, cells were photographed or fixed with 10% formalin. Morphology was examined after four days of treatment with TOFA or vehicle (DMSO). The number of cells beating neurites and average length of neurites were determined with the aid of the Bioquant imaging system. […] However, as depicted in Table 6 below, NGF alone induced a 15% increase in the number of cells bearing neurites and these outgrowths reached a mean length of 20 μm. Treatment with NGF and TOFA increased the percentage of cells beating neurites to 78%. Maximal neurite generation is observed at a concentration of 10 μM TOFA.
Cells were treated with vehicle (0.1% DMSO) or various concentrations of TOFA in the presence of 100 ng/mL NGF for 4 days, and then fixed with 10% formalin. At least eighty cells from eight wells were analyzed in each group. The results are shown as the mean ±SEM. ^a p<0.01, versus vehicle by Dunnetts test.

PC12 cells [2] = assay: Neurite differentiation of PC12 cells; type: cell-based; details: TOFA alone, without NGF
[3] = system: Dopamine D1 receptor antagonist (SCH 23390) induced catalepsy; assay: SCH 23390 induced catalepsy (Bar method); type: in vivo, rat; details: for Catalepsy Duration: TOFA 0.4 mg/kg S.C. pretreatment
Description: Rats were pretreated with 0.4 mg/kg TOFA or with carrier (S.C.). Twenty-four hours later, the rats were challenged with 0.5 mg/kg SCH23390, a Dopamine D1 antagonist, and the duration of catalepsy was monitored.
Catalepsy was determined by a modification of the Bar method (Undie and Friedman, 1988). A steel bar, 1.1 cm in diameter and 50 cm long, was suspended at a height of 10 cm above the working surface. Three sides of the bench around the bar were walled off with brown cardboard, and the linings on the bench surface were selected to be of the same color with the cardboard walls. The animal's hind limbs were freely placed on the bench, the fail laid out to the back, and the forelimbs placed over the bar. The length of time a rat stayed up on the bar was noted up to a preset cut-off point of 120 s. The time was counted off upon observing any of the following actions: (1) the animal came off, placing its two forepaws on the bench, (2) the animal climbed onto or over the bar with both hind limbs, (3) the animal initiated locomotion along or around the bar. Subsequently, time readings were translated into scores by awarding a score of 1 for each successfully completed 5 s on the bar. For each observation time, catalepsy scores were averaged for all the animals in a group to give the Mean Score of the group at that observation time. Further, the scores for each animal at all the observation times were added to give the total score for that animal. The mean of this last group of numbers was called the Mean Total Score of the group.
Catalepsy scores were analyzed by computer in accordance with the statistical procedures outlined by Winer, B. J.: Statistical principles in experimental design. McGraw-Hill, New York, pp. 10-428, 1971. Generally, for a given set of comparisons, observations were subjected to an appropriate analysis of variance followed by two-tailed Dunnett or Student's t-tests to detect differences between treatment groups.

[4] = system: Dopamine D2 receptor antagonist (Haloperidol) induced catalepsy; assay: Haloperidol induced catalepsy (Bar method); type: in vivo, rat; details: for Catalepsy Duration: TOFA 0.4 mg/kg S.C. pretreatment
acetyl-CoA carboxylase = details: high doses, i.e. 0.15% of diet; cited from earlier work
GR/NER chimeric receptor = assay: Activation of GR/NER in CV1 cells (luciferase)
Description: The ligand dependent transcription assays were performed as described in Example 4, using CV1 cells in place of COS cells. The transfected CV1 cells were treated with dopamine, TOFA, or with a combination of TOFA and dopamine at the indicated concentrations and tested for luciferase activity.
CV1 cells were co-transfected with the MMTV-Luciferase reporter gene (pJA358) and the GR/NER chimeric receptor as described in Example 4. The cells were treated with increasing amount of the dopamine D1 receptor antagonist SCH 23390 with or without 50 μM […] dopamine.

Structure (SMILES): CCCCCCCCCCCCCCOc1ccc(C(=O)O)o1 [TOFA, 5-(tetradecyloxy)-2-furan carboxylic acid]
- % Cells Bearing Neurites (PC12 cells [1]; 0.1 μM TOFA with 100 ng/mL NGF): 14.27 ± 3.51%
- Average length of neurites (PC12 cells [1]; 0.1 μM TOFA with 100 ng/mL NGF): 23.67 ± 2.86 μm
- % Cells Bearing Neurites (PC12 cells [1]; 1.0 μM TOFA with 100 ng/mL NGF): 24.07 ± 3.06%
- Average length of neurites (PC12 cells [1]; 1.0 μM TOFA with 100 ng/mL NGF): 28.63 ± 3.92 μm
- % Cells Bearing Neurites (PC12 cells [1]; 10 μM TOFA with 100 ng/mL NGF): 78% and 78.39 ± 4.89%
- Average length of neurites (PC12 cells [1]; 10 μM TOFA with 100 ng/mL NGF): 32.43 ± 2.38 μm
- Concentration of maximal neurite generation (PC12 cells [1]; with 100 ng/mL NGF): 10 µM
- Neurite outgrowth (PC12 cells [2]): did not induce neurite outgrowth
- Catalepsy Duration ([3]; 24 h later 0.5 mg/kg SCH23390): 75 ± 17.8 s
- Catalepsy Duration ([3]; no challenge): 0 s
- Increase of duration of SCH 23390-induced catalepsy by TOFA pretreatment ([3]; TOFA 0.4 mg/kg S.C., 24 h before 0.5 mg/kg SCH23390): at least 25 fold
- Catalepsy Duration ([4]; 24 h later 0.1 mg/kg Haloperidol): 28.9 ± 4.5 s
- Catalepsy Duration ([4]; no challenge): 0 s
- Effect of TOFA pretreatment on Haloperidol-induced catalepsy ([4]; TOFA 0.4 mg/kg S.C., 24 h before 0.1 mg/kg Haloperidol): did not significantly affect; also recorded: unaffected
- Fatty acid synthesis in vivo (acetyl-CoA carboxylase): inhibit fatty acid synthesis
- Fold of stimulation GR/NER (GR/NER chimeric receptor; TOFA 10 μM with dopamine 100 μM): 1.40 ± 0.05 fold
- Fold of stimulation GR/NER (GR/NER chimeric receptor; TOFA 100 μM with dopamine 100 μM): 1.60 ± 0.07 fold
- Fold of stimulation GR/NER (GR/NER chimeric receptor; TOFA 100 μM, no dopamine): 3.70 ± 0.06 fold
